Assay results taken from US12071624B2, “Antisense oligonucleotide targeting ARL4C molecule, and nucleic acid drug using antisense oligonucleotide” (OSAKA UNIVERSITY, priority 2018, dated 2024).
[AmNA] = 2',4'-bridged nucleic acid with N-methyl amide bridge (AmNA); d = 2'-deoxy (DNA)

What was measured:
PIK3CD mRNA = PIK3CD mRNA amount by real-time PCR in HLE cells; type: cell-based, human; settings: HLE cells transfected with ASO at 25 nM
Description: (§1) HLE cells, HCT116 cells, and A549 cells were transfected with 25 to 50 nM ASO and 10 to 20 nM siRNA using Lipofectamine 3000 (Invitrogen, Carlsbad, CA, USA) or RNAiMAX (Invitrogen). Transfected cells were used in the experiments 36 to 48 hours after the end of the transfection.
(§2) Cell migration assays and quantitative real-time PCR analyses were performed according to the methods reported by Fujii S et al. (Oncogene 2015; 34: 4834-44).
HLE cells were treated with 25 μM SecinH3 (inhibitor of Arf nucleotide-binding site opener (ARNO)) or 50 μM NSC23766 (Rac inhibitor), and the amount of PIK3CD mRNA was measured by real-time PCR; the results are shown in (c) of FIG. 5.
HLE cells were transfected with control ASO, ASO-1316, and ASO-3223 at 25 nM, and the PIK3CD mRNA amount was measured by real-time PCR; the results are shown in (g) of FIG. 5. In addition, an anti-phosphorylated AKT (pAKT S473) antibody and an anti-AKT antibody as probes were caused to act on cell lysates of HLE cells transfected with control ASO, ASO-1316, and ASO-3223; the results are shown in (h) of FIG. 5.

ARL4C mRNA = ARL4C mRNA amount by real-time PCR in HLE cells; type: cell-based, human; settings: for effect of reducing the ARL4C mRNA amount at a low concentration: HLE cells transfected at 0.5 to 25 nM
Description: as §1, §2
HLE cells and HCT116 cells were transfected with the above-described seven types of ARL4C ASOs and the control ASO at 25 nM, and the ARL4C mRNA amounts were measured by real-time PCR; the results thereof are shown in (a) of FIG. 4. […] In order to optimize the effect of these three types of ARL4C ASOs, four bases were added to each of these three types of ARL4C ASOs, whereby ASO-1312, ASO-1450, and ASO-3223 each of which consisted of 19 bases were produced. With these six types of ARL4C ASOs (ASO-1316, ASO-1312, ASO-1454, ASO-1450, ASO-3225, and ASO-3223), the knockdown effect on ARL4C was further studied.
HLE cells were transfected with ARL4C ASOs (ASO-1316, ASO-1312, ASO-1454, ASO-1450, ASO-3225, and ASO-3223) at 25 nM each, and the ARL4C mRNA amounts were measured by real-time PCR; the results are shown in (c) of FIG. 3. In addition, HLE cells were transfected with ARL4C ASOs (ASO-1316, ASO-1312, ASO-3225, and ASO-3223) at 0.5 to 25 nM each, and the ARL4C mRNA amounts were measured by real-time PCR; the results are shown in (b) of FIG. 4.
HLE cells were treated with 10 μM PD184161 or 10 nM CTNNB1 siRNA (siRNA against CTNNB1), and the ARL4C mRNA amount was measured by real-time PCR; the results are shown in (a) of FIG. 5. In addition, HLE cells were treated with 10 nM CTNNB1 siRNA (siRNA against CTNNB1), and the ARL4C mRNA amount was measured by real-time PCR; the results thereof are shown in (a) of FIG. 6. PD184161 is a compound that inhibits MEK without knocking down […].

[1] = system: nuclear localization of YAP in A549 cells; assay: Anti-YAP/TAZ antibody staining in A549 cells; type: cell-based, human; settings: A549 cells transfected at 25 nM
Description: as §1
(§3) HLE cells or A549 cells were transfected with control ASO, ASO-1316, and ASO-3223 at 25 nM, and were stained with an anti-YAP/TAZ antibody; the results are shown in (c) of FIG. 6.

[2] = system: nuclear localization of YAP in HLE cells; assay: Anti-YAP/TAZ antibody staining in HLE cells; type: cell-based; settings: HLE cells transfected at 25 nM
Description: as §1, §3

HLE cells = assay: Cell migration assay in HLE/GFP and HLE/ARL4C-GFP cells; type: cell-based; settings: HLE/GFP or HLE/ARL4C-GFP cells transfected at 25 nM
From the text: HLE cells allowing for the stable expression of GFP (HLE/GFP cells), HLE cells allowing for the stable expression of ARL4c-GFP with GFP fused to the C-terminal side (HLE/ARL4C-GFP cells, i.e., cells in which ARL4C-GFP is transduced and stably expressed), HCT116 cells allowing for the stable expression of luciferase (HCT116/Luc cells), A549 cells allowing for the stable expression of luciferase (A549/Luc cells), and S2-CP8 cells allowing for the stable expression of luciferase (S2-CP8/Luc cells) were produced using lentivirus according to the method reported by Matsumoto S et al. (EMBO J 2014; 33: 702-18) and Fujii S et al. (Oncogene 2015; 34: 4834-44). In addition, ARL4C-GFP is ARL4C with GFP fused thereto.
as §1
Cell migration assays and quantitative real-time PCR analyses were performed according to the methods reported by Fujii S et al. (Oncogene 2015; 34: 4834-44). […]

Row | Substance | PIK3CD mRNA amount / PIK3CD expression (PIK3CD mRNA) | ARL4C mRNA amount (ARL4C mRNA; HLE cells transfected at 25 nM) | effect of reducing the ARL4C mRNA amount at a low concentration (ARL4C mRNA) | nuclear localization of YAP [1] | nuclear localization of YAP [2] | cell migration (HLE cells)
1 | ASO-1316: 15-mer AmNA/phosphorothioate ASO targeting ARL4C, base sequence SEQ ID NO: 1 gcatacctcaggtaa; Table 1 SEQ ID NO 13 (antisense GCATACCTCAGGTAA; AmNA and phosphorothioate modified, pattern not given here) | suppressing PIK3CD expression | reduced the ARL4C mRNA amount | high effects of reducing the ARL4C mRNA amount | inhibited the nuclear localization of YAP | did not affect the nuclear localization of YAP | suppress the migration of HLE cells
2 | ASO-3223: 19-mer ARL4C ASO of Table 1, SEQ ID NO 55 (antisense NNNGGTTACAGTATTTNNC; sugars from the 5' end [AmNA]3 d13 [AmNA]2 d1, backbone, methylation of C and the base at N not given here; further chemistry not fully specified) | suppressing PIK3CD expression | – | high effects of reducing the ARL4C mRNA amount | inhibited the nuclear localization of YAP | did not affect the nuclear localization of YAP | suppress the migration of HLE cells
